Reference: PubChem BioAssay AID1963984 (Molecular Pharmacology Branch, DTP, NCI, 2024)

Tested on: 233499-124-R-J3-PDC spheroids with HUVEC/MSC, viability
Test: Anticancer human tumor 233499-124-R-J3-PDC patient-derived colon adenocarcinoma cell line growth inhibition [PI3K]
Conditions: for IC50: curve of first compound; for viability, T/C: stronger effect = lower value
Method in brief: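 High-throughput combination screen: PI3K inhibitors crossed with targeted small molecules on complex spheroids of tumor cells, HUVEC and MSCs at 37 degrees C, 5% CO2. Top concentration was at or near clinical Cmax (otherwise 10 microM), with half-log decrements.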

[1] = second compound 0.00316 µM, first compound 0.0316 µM
[2] = second compound 0.00316 µM, first compound 0.1 µM
[3] = second compound 0.00316 µM, first compound 0.316 µM
[4] = second compound 0.00316 µM, first compound 1 µM
[5] = second compound 0.00316 µM, first compound 3.16 µM
[6] = second compound 0.00316 µM, first compound 10 µM
[7] = second compound 0.01 µM, first compound 0.0316 µM
[8] = second compound 0.01 µM, first compound 0.1 µM
[9] = second compound 0.01 µM, first compound 0.316 µM
[10] = second compound 0.01 µM, first compound 1 µM
[11] = second compound 0.01 µM, first compound 3.16 µM
[12] = second compound 0.01 µM, first compound 10 µM
[13] = second compound 0.0316 µM, first compound 0.0316 µM
[14] = second compound 0.0316 µM, first compound 0.1 µM
[15] = second compound 0.0316 µM, first compound 0.316 µM
[16] = second compound 0.0316 µM, first compound 1 µM
[17] = second compound 0.0316 µM, first compound 3.16 µM
[18] = second compound 0.0316 µM, first compound 10 µM
[19] = second compound 0.1 µM, first compound 0.0316 µM
[20] = second compound 0.1 µM, first compound 0.1 µM
[21] = second compound 0.1 µM, first compound 0.316 µM
[22] = second compound 0.1 µM, first compound 1 µM
[23] = second compound 0.1 µM, first compound 3.16 µM
[24] = second compound 0.1 µM, first compound 10 µM
[25] = second compound 0.316 µM, first compound 0.0316 µM
[26] = second compound 0.316 µM, first compound 0.1 µM
[27] = second compound 0.316 µM, first compound 0.316 µM
[28] = second compound 0.316 µM, first compound 1 µM
[29] = second compound 0.316 µM, first compound 3.16 µM
[30] = second compound 0.316 µM, first compound 10 µM
[31] = second compound 1 µM, first compound 0.0316 µM
[32] = second compound 1 µM, first compound 0.1 µM
[33] = second compound 1 µM, first compound 0.316 µM
[34] = second compound 1 µM, first compound 1 µM
[35] = second compound 1 µM, first compound 3.16 µM
[36] = second compound 1 µM, first compound 10 µM
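Note: spheroids exposed to agents for seven days before readout.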
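Throughout, for viability, T/C: percent viability relative to DMSO vehicle control taken as 100%.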

With C#Cc1c(F)ccc2cc(O)cc(-c3ncc4c(N5CC6CCC(C5)N6)nc(OCC56CCCN5CC(F)C6)nc4c3F)c12 (stereo unspecified) + COc1c(OCCCN2CCOCC2)ccc2c3n(c(=NC(=O)c4cnc(N)nc4)nc12)CCN3 the IC50 (second compound 0.00316 µM) was greater than 10000 nM, the IC50 (second compound 0.01 µM) was greater than 10000 nM and the IC50 (second compound 0.0316 µM) was greater than 10000 nM. For the same molecule, the IC50 (second compound 0.1 µM) was 2230 nM, the IC50 (second compound 0.316 µM) was less than 31.6 nM and the IC50 (second compound 1 µM) was less than 31.6 nM. For the same molecule, the viability, T/C [1] was 85.5%, the viability, T/C [2] was 100% and the viability, T/C [3] was 82.9%. For the same molecule, the viability, T/C [4] was 95.1%, the viability, T/C [5] was 81% and the viability, T/C [6] was 67.2%. The viability, T/C [7] was 81.5%, the viability, T/C [8] was 95.2% and the viability, T/C [9] was 86.9%. It also gave a viability, T/C [10] of 91.6%, a viability, T/C [11] of 81.2% and a viability, T/C [12] of 80.8%. For the same molecule, the viability, T/C [13] was 93.3%, the viability, T/C [14] was 91.3% and the viability, T/C [15] was 74.8%. For the same molecule, the viability, T/C [16] was 92.7%, the viability, T/C [17] was 71.2% and the viability, T/C [18] was 68.7%. For the same molecule, the viability, T/C [19] was 62.6%, the viability, T/C [20] was 86.5% and the viability, T/C [21] was 71.2%. It also gave a viability, T/C [22] of 63.5%, a viability, T/C [23] of 44.3% and a viability, T/C [24] of 29.7%. For the same molecule, the viability, T/C [25] was 24.9%, the viability, T/C [26] was 26% and the viability, T/C [27] was 27.1%. The viability, T/C [28] was 11.7%, the viability, T/C [29] was 13.3% and the viability, T/C [30] was 4.16%. It also gave a viability, T/C [31] of 4.26%, a viability, T/C [32] of 9.48% and a viability, T/C [33] of 8.52%. It also gave a viability, T/C [34] of 3.87%, a viability, T/C [35] of 4.18% and a viability, T/C [36] of 2.6%.

For CC(C)n1nc(-c2ccc3oc(N)nc3c2)c2c(N)ncnc21 + CC(Nc1ccc2c(c1)OCCn1cc(N3C(=O)OCC3C(F)F)nc1-2)C(N)=O, the IC50 (second compound 0.00316 µM) was greater than 100 nM, the IC50 (second compound 0.01 µM) was greater than 100 nM and the IC50 (second compound 0.0316 µM) was greater than 100 nM. It also gave an IC50 (second compound 0.1 µM) of 53.3 nM, an IC50 (second compound 0.316 µM) of 15.1 nM and an IC50 (second compound 1 µM) of 3.69 nM. It also gave a viability, T/C (second compound 0.00316 µM, first compound 0.000316 µM) of 73.5%, a viability, T/C (second compound 0.00316 µM, first compound 0.001 µM) of 90.1% and a viability, T/C (second compound 0.00316 µM, first compound 0.00316 µM) of 88%. It also gave a viability, T/C (second compound 0.00316 µM, first compound 0.01 µM) of 95.7%, a viability, T/C [1] of 81% and a viability, T/C [2] of 50.2%. For the same molecule, the viability, T/C (second compound 0.01 µM, first compound 0.000316 µM) was 97.8%, the viability, T/C (second compound 0.01 µM, first compound 0.001 µM) was 92.7% and the viability, T/C (second compound 0.01 µM, first compound 0.00316 µM) was 105%. For the same molecule, the viability, T/C (second compound 0.01 µM, first compound 0.01 µM) was 89.4%, the viability, T/C [7] was 78.3% and the viability, T/C [8] was 57.5%. It also gave a viability, T/C (second compound 0.0316 µM, first compound 0.000316 µM) of 103%, a viability, T/C (second compound 0.0316 µM, first compound 0.001 µM) of 83% and a viability, T/C (second compound 0.0316 µM, first compound 0.00316 µM) of 85.9%. The viability, T/C (second compound 0.0316 µM, first compound 0.01 µM) was 70.3%, the viability, T/C [13] was 91% and the viability, T/C [14] was 60.8%. The viability, T/C (second compound 0.1 µM, first compound 0.000316 µM) was 84%, the viability, T/C (second compound 0.1 µM, first compound 0.001 µM) was 61.3% and the viability, T/C (second compound 0.1 µM, first compound 0.00316 µM) was 66%. For the same molecule, the viability, T/C (second compound 0.1 µM, first compound 0.01 µM) was 77%, the viability, T/C [19] was 66.6% and the viability, T/C [20] was 29.1%. For the same molecule, the viability, T/C (second compound 0.316 µM, first compound 0.000316 µM) was 82.7%, the viability, T/C (second compound 0.316 µM, first compound 0.001 µM) was 49.3% and the viability, T/C (second compound 0.316 µM, first compound 0.00316 µM) was 73.5%. The viability, T/C (second compound 0.316 µM, first compound 0.01 µM) was 46.6%, the viability, T/C [25] was 52.8% and the viability, T/C [26] was 24.2%. The viability, T/C (second compound 1 µM, first compound 0.000316 µM) was 49.8%, the viability, T/C (second compound 1 µM, first compound 0.001 µM) was 48.4% and the viability, T/C (second compound 1 µM, first compound 0.00316 µM) was 59.2%. It also gave a viability, T/C (second compound 1 µM, first compound 0.01 µM) of 41.2%, a viability, T/C [31] of 26.3% and a viability, T/C [32] of 12.3%.

With CNC(=O)c1ccc(N2C(=S)N(c3ccc(C#N)c(C(F)(F)F)c3)C(=O)C2(C)C)cc1F + CC(Nc1ccc2c(c1)OCCn1cc(N3C(=O)OCC3C(F)F)nc1-2)C(N)=O the IC50 (second compound 0.00316 µM) was 8070 nM, the IC50 (second compound 0.01 µM) was greater than 10000 nM and the IC50 (second compound 0.0316 µM) was greater than 10000 nM. The IC50 (second compound 0.1 µM) was greater than 10000 nM, the IC50 (second compound 0.316 µM) was greater than 10000 nM and the IC50 (second compound 1 µM) was 145 nM. It also gave a viability, T/C [1] of 85.8%, a viability, T/C [2] of 82.7% and a viability, T/C [3] of 79.2%. It also gave a viability, T/C [4] of 92%, a viability, T/C [5] of 78.3% and a viability, T/C [6] of 42.9%. The viability, T/C [7] was 88.3%, the viability, T/C [8] was 98.5% and the viability, T/C [9] was 95%. For the same molecule, the viability, T/C [10] was 76.9%, the viability, T/C [11] was 71.2% and the viability, T/C [12] was 72.2%. For the same molecule, the viability, T/C [13] was 88.9%, the viability, T/C [14] was 54.9% and the viability, T/C [15] was 76%. It also gave a viability, T/C [16] of 89.2%, a viability, T/C [17] of 88.1% and a viability, T/C [18] of 67.4%. The viability, T/C [19] was 84.7%, the viability, T/C [20] was 71.8% and the viability, T/C [21] was 94.4%. It also gave a viability, T/C [22] of 77.9%, a viability, T/C [23] of 69.5% and a viability, T/C [24] of 55.6%. The viability, T/C [25] was 88.2%, the viability, T/C [26] was 38% and the viability, T/C [27] was 71.2%. For the same molecule, the viability, T/C [28] was 76.2%, the viability, T/C [29] was 59.1% and the viability, T/C [30] was 53.6%. For the same molecule, the viability, T/C [31] was 52.5%, the viability, T/C [32] was 52.1% and the viability, T/C [33] was 42.8%. It also gave a viability, T/C [34] of 50.2%, a viability, T/C [35] of 43.7% and a viability, T/C [36] of 34.6%.
